Results as given in paper PMC3217100 (2011).
Like-named read-outs stand apart in the source and are kept apart here.

Assays:
[1] = target: T1, nicotinic α4β2 receptor (α4β2 nAChR) (Rattus norvegicus, UniProt P09483+P12390); experiment: radioligand competition with 3H-cytisine, rat brain homogenate; assay type: binding
[2] = target: T1, nicotinic α4β2 receptor (α4β2 nAChR); experiment: as above; assay type: binding; conditions: read-out: Ki ^a; cited from earlier work

Compound	Ki [1]	Ki [2]
FCCCc1cncc(OC[C@@H]2CCN2)c1 [compound 4, 3-(2-(S)-azetidinylmethoxy)-5-(3′-fluoropropyl)pyridine]	0.67 nM	
FCCCc1cncc(OC[C@@H]2CCCN2)c1 [compound 3, Nifrolidine]		0.8 nM
